Values of other authors, collected in US20140230258A1, “COMPACT HAND HELD DEVICE” (The Gillette Company, priority 2013, published 2014).

Details: organism not stated

Q: With CCCCCCCCn1sc(Cl)c(Cl)c1=O [4,5-dichloro-2-n-octyl-4-isothiazolin-3-one] as the compound, how does the MIC read?
A: about 50 ppm
